In patent US20080227797A1, “Pyridopyrimidine Derivatives as Pde4 Inhibitors for the Treatment of Inflammatory and Immune Diseases” (ASTRAZENECA AB, priority 2005, published 2008):

Target: recombinant Human Phosphodiesterase B2 (PDE4B2) (Homo sapiens, UniProt Q07343)
Test: Human Phosphodiesterase B2 Alpha Screen Assay
Assay type: biochemical
Conditions: cAMP substrate, Alpha Screen cAMP kit, 60 minutes at room temperature
Method: Human Phosphodiesterase B2 Alpha Screen Assay
The assay uses recombinant Human Phosphodiesterase B2 (PDE4B2) produced in house (PrAZL0133), stored at −20° C. The substrate uses cAMP, part of the Alpha Screen cAMP kit (Perkin Elmer, Cat# 6760625M), stored at 4° C. The Alpha Screen kit also includes biotinylated cAMP, acceptor and donor beads.
The assay additions were as follows: Test compounds and controls were added to white 384-well flat-bottom plates (Greiner, Cat# 781075), 0.2 μl in 100% DMSO, followed by 10 μl PDE4B2 in reaction buffer. The reaction buffer constitution was: 50 mM Tris (pH 7.5), 8.3 mM MgCl2, 1.7 mM EGTA and 0.01% (w/v) Brij®35. The enzyme and the compounds were incubated at room temperature for 15 minutes. Then 10 μl cAMP in reaction buffer was added. The assay was stopped after 60 minutes incubation at room temperature by adding 10 μl acceptor beads in detection buffer with 40 mM EDTA. The detection buffer constitution was: 5 mM Tris (pH 7.5), 0.1% (w/v) BSA and 0.1% (v/v) Tween 20. This addition followed by an addition of 10 μl donor beads in detection buffer, with biotinylated cAMP. The plates were then incubated, dark at room temperature, for 5 hours followed by measurement on a Fusion™-α analyser. IC50 values (presented in Table 1) were determined using Xlfit curve fitting using model 205.

Sequence of recombinant Human Phosphodiesterase B2 (PDE4B2) (Q07343 1-564 isoform Q07343-2): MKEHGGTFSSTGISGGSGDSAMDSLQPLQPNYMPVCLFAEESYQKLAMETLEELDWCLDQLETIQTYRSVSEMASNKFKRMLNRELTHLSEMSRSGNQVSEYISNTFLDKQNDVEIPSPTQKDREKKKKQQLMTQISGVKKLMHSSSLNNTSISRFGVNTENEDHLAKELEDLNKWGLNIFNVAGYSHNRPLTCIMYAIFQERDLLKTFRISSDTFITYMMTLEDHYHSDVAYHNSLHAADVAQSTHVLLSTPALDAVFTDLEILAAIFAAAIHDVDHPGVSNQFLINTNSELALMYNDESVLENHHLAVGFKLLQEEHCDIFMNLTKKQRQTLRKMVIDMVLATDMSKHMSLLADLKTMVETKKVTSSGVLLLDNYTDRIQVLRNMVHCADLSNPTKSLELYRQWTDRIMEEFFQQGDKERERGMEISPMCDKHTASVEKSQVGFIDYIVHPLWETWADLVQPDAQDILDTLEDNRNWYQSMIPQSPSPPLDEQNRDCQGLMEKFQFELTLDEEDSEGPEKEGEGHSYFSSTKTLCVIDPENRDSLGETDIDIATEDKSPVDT

IC50 [nM]	SMILES
4.13	O=C(N[C@H]1CC[C@@H](n2c(=O)c3cc(F)cnc3n(-c3ccc(F)c(F)c3)c2=O)CC1)c1cccc([N+](=O)[O-])c1 [Example 86, N-{cis-4-[1-(3,4-difluorophenyl)-6-fluoro-2,4-dioxo-1,4-dihydropyrido[2,3-d]pyrimidin-3(2H)-yl]cyclohexyl}-3-nitrobenzamide]
5.7	COC(=O)c1cccc(-n2c(=O)n([C@H]3CC[C@@H](NC(=O)CC(C)C)CC3)c(=O)c3cc(F)cnc32)c1 [Example 63, methyl 3-[6-fluoro-3-{cis-4-[(3-methylbutanoyl)amino]cyclohexyl}-2,4-dioxo-3,4-dihydropyrido[2,3-d]pyrimidin-1(2H)-yl]benzoate]
30.1	O=C(N[C@H]1CC[C@@H](n2c(=O)c3cc(F)cnc3n(-c3ccc(F)c(F)c3)c2=O)CC1)c1nc2ncccn2n1 [Example 107, N-{cis-4-[1-(3,4-difluorophenyl)-6-fluoro-2,4-dioxo-1,4-dihydropyrido[2,3-d]pyrimidin-3(2H)-yl]cyclohexyl}[1,2,4]triazolo[1,5-a]pyrimidine-2-carboxamide]
50.1	O=C(N[C@H]1CC[C@@H](n2c(=O)c3cc(F)cnc3n(-c3ccc(F)c(F)c3)c2=O)CC1)c1cc[nH]n1 [Example 98, N-{cis-4-[1-(3,4-difluorophenyl)-6-fluoro-2,4-dioxo-1,4-dihydropyrido[2,3-d]pyrimidin-3(2H)-yl]cyclohexyl}-1H-pyrazole-3-carboxamide]
0.6	O=C(N[C@H]1CC[C@@H](n2c(=O)c3cc(F)cnc3n(-c3ccc(F)c(F)c3)c2=O)CC1)c1n[nH]c2ccccc12 [Example 32, N-{cis-4-[1-(3,4-difluorophenyl)-6-fluoro-2,4-dioxo-1,4-dihydropyrido[2,3-d]pyrimidin-3(2H)-yl]cyclohexyl}-1H-indazole-3-carboxamide]
6.6	COC(=O)c1cccc(-n2c(=O)n([C@H]3CC[C@@H](NC(=O)C4CC4)CC3)c(=O)c3cc(F)cnc32)c1 [Example 70, methyl 3-[3-{cis-4-[(cyclopropylcarbonyl)amino]cyclohexyl}-6-fluoro-2,4-dioxo-3,4-dihydropyrido[2,3-d]pyrimidin-1(2H)-yl]benzoate]
1.3	Cc1ccc(C(=O)N[C@H]2CC[C@@H](n3c(=O)c4cc(F)cnc4n(-c4ccc(F)c(F)c4)c3=O)CC2)c(O)c1 [Example 9, N-{cis-4-[1-(3,4-difluorophenyl)-6-fluoro-2,4-dioxo-1,4-dihydropyrido[2,3-d]pyrimidin-3(2H)-yl]cyclohexyl}-2-hydroxy-4-methylbenzamide]
5	O=C(N[C@H]1CC[C@@H](n2c(=O)c3cc(F)cnc3n(-c3ccc(F)c(F)c3)c2=O)CC1)c1cc(Cl)ccc1O [Example 4, 5-chloro-N-{cis-4-[1-(3,4-difluorophenyl)-6-fluoro-2,4-dioxo-1,4-dihydropyrido[2,3-d]pyrimidin-3(2H)-yl]cyclohexyl}-2-hydroxybenzamide]
5.1	COC(=O)c1cccc(-n2c(=O)n([C@H]3CC[C@@H](NC(=O)c4ccc(CN(C)C)o4)CC3)c(=O)c3cc(F)cnc32)c1 [Example 74, methyl 3-[3-[cis-4-({5-[(dimethylamino)methyl]-2-furoyl}amino)cyclohexyl]-6-fluoro-2,4-dioxo-3,4-dihydropyrido[2,3-d]pyrimidin-1(2H)-yl]benzoate]
2.18	Cn1cnc(C(=O)N[C@H]2CC[C@@H](n3c(=O)c4cc(F)cnc4n(-c4ccc(F)c(F)c4)c3=O)CC2)c1 [Example 97, N-{cis-4-[1-(3,4-difluorophenyl)-6-fluoro-2,4-dioxo-1,4-dihydropyrido[2,3-d]pyrimidin-3(2H)-yl]cyclohexyl}-1-methyl-1H-imidazole-4-carboxamide]
2.2	O=C(N[C@H]1CC[C@@H](n2c(=O)c3cc(F)cnc3n(-c3ccc(F)c(F)c3)c2=O)CC1)c1ccc(O)c(Cl)c1 [Example 12, 3-chloro-N-{cis-4-[1-(3,4-difluorophenyl)-6-fluoro-2,4-dioxo-1,4-dihydropyrido[2,3-d]pyrimidin-3(2H)-yl]cyclohexyl}-4-hydroxybenzamide]
73.3	O=C([C@H](O)c1ccccc1)N1CC[C@@H](n2c(=O)c3cc(F)cnc3n(-c3ccc(F)c(F)c3)c2=O)C1 [Example 80, 1-(3,4-difluorophenyl)-6-fluoro-3-{(3R)-1-[(2R)-2-hydroxy-2-phenylacetyl]pyrrolidin-3-yl}pyrido[2,3-d]pyrimidine-2,4(1H,3H)-dione]
2.7	O=C(N[C@H]1CC[C@@H](n2c(=O)c3cc(F)cnc3n(-c3ccc(F)c(F)c3)c2=O)CC1)c1ccc(Cl)cc1O [Example 18, 4-chloro-N-{cis-4-[1-(3,4-difluorophenyl)-6-fluoro-2,4-dioxo-1,4-dihydropyrido[2,3-d]pyrimidin-3(2H)-yl]cyclohexyl}-2-hydroxybenzamide]
2.1	COc1cccc(O)c1C(=O)N[C@H]1CC[C@@H](n2c(=O)c3cc(F)cnc3n(-c3ccc(F)c(F)c3)c2=O)CC1 [Example 16, N-{cis-4-[1-(3,4-difluorophenyl)-6-fluoro-2,4-dioxo-1,4-dihydropyrido[2,3-d]pyrimidin-3(2H)-yl]cyclohexyl}-2-hydroxy-6-methoxybenzamide]
11.7	O=C(N[C@H]1CC[C@@H](n2c(=O)c3cc(F)cnc3n(-c3ccc(F)c(F)c3)c2=O)CC1)c1csnn1 [Example 93, N-{cis-4-[1-(3,4-difluorophenyl)-6-fluoro-2,4-dioxo-1,4-dihydropyrido[2,3-d]pyrimidin-3(2H)-yl]cyclohexyl}-1,2,3-thiadiazole-4-carboxamide]
8.1	O=C([C@H](O)C1CCCCC1)N1CC[C@@H](n2c(=O)c3cc(F)cnc3n(-c3ccc(F)c(F)c3)c2=O)C1 [Example 81, 3-{(3R)-1-[(2R)-2-cyclohexyl-2-hydroxyacetyl]pyrrolidin-3-yl}-1-(3,4-difluorophenyl)-6-fluoropyrido[2,3-d]pyrimidine-2,4(1H,3H)-dione]
1	COC(=O)c1cccc(-n2c(=O)n([C@H]3CC[C@@H](NC(=O)c4cn5ccccc5n4)CC3)c(=O)c3cc(F)cnc32)c1 [Example 69, methyl 3-[6-fluoro-3-{cis-4-[(imidazo[1,2-a]pyridin-2-ylcarbonyl)amino]cyclohexyl}-2,4-dioxo-3,4-dihydropyrido[2,3-d]pyrimidin-1(2H)-yl]benzoate]
3.9	CSc1cccc(-n2c(=O)n([C@H]3CC[C@@H](NC(=O)c4ccco4)CC3)c(=O)c3cc(F)cnc32)c1 [Example 54, N-{cis-4-[6-fluoro-1-[3-(methylthio)phenyl]-2,4-dioxo-1,4-dihydropyrido[2,3-d]pyrimidin-3(2H)-yl]cyclohexyl}-2-furamide]
71.8	O=C(c1cc(CO)ccc1O)N1CC[C@@H](n2c(=O)c3cc(F)cnc3n(-c3ccc(F)c(F)c3)c2=O)C1 [Example 82, 1-(3,4-difluorophenyl)-6-fluoro-3-{(3R)-1-[2-hydroxy-5-(hydroxymethyl)benzoyl]pyrrolidin-3-yl}pyrido[2,3-d]pyrimidine-2,4(1H,3H)-dione]
14.5	COC(=O)c1cccc(-n2c(=O)n([C@H]3CC[C@@H](NC(=O)[C@@H]4CCCN4C)CC3)c(=O)c3cc(F)cnc32)c1 [Example 49, Methyl 3-[6-fluoro-3-{cis-4-[(1-methyl-L-prolyl)amino]cyclohexyl}-2,4-dioxo-3,4-dihydropyrido[2,3-d]pyrimidin-1(2H)-yl]benzoate]
9.5	O=C(c1n[nH]c2ccccc12)N1CCC(n2c(=O)c3cc(F)cnc3n(-c3ccc(F)c(F)c3)c2=O)CC1 [Example 76, 1-(3,4-difluorophenyl)-6-fluoro-3-[1-(1H-indazol-3-ylcarbonyl)piperidin-4-yl]pyrido[2,3-d]pyrimidine-2,4(1H,3H)-dione]
0.741	O=C(N[C@H]1CC[C@@H](n2c(=O)c3cc(F)cnc3n(-c3ccc(F)c(F)c3)c2=O)CC1)c1cc2cccnc2[nH]1 [Example 103, N-{cis-4-[1-(3,4-difluorophenyl)-6-fluoro-2,4-dioxo-1,4-dihydropyrido[2,3-d]pyrimidin-3(2H)-yl]cyclohexyl}-1H-pyrrolo[2,3-b]pyridine-2-carboxamide]
4.2	CSc1cccc(-n2c(=O)n([C@H]3CC[C@@H](NC(=O)c4ccccc4)CC3)c(=O)c3cc(F)cnc32)c1 [Example 57, N-{cis-4-[6-fluoro-1-[3-(methylthio)phenyl]-2,4-dioxo-1,4-dihydropyrido[2,3-d]pyrimidin-3(2H)-yl]cyclohexyl}benzamide]
5.31	O=C(N[C@H]1CC[C@@H](n2c(=O)c3cc(F)cnc3n(-c3ccc(F)c(F)c3)c2=O)CC1)c1cn[nH]c1 [Example 94, N-{cis-4-[1-(3,4-difluorophenyl)-6-fluoro-2,4-dioxo-1,4-dihydropyrido[2,3-d]pyrimidin-3(2H)-yl]cyclohexyl}-1H-pyrazole-4-carboxamide]
2.3	Cc1ccc(O)c(C(=O)N[C@H]2CC[C@@H](n3c(=O)c4cc(F)cnc4n(-c4ccc(F)c(F)c4)c3=O)CC2)c1 [Example 72, N-{cis-4-[1-(3,4-difluorophenyl)-6-fluoro-2,4-dioxo-1,4-dihydropyrido[2,3-d]pyrimidin-3(2H)-yl]cyclohexyl}-2-hydroxy-5-methylbenzamide]
